Key:
livid amaranth [1] = test: Foliar spread test for upland field; format: in vivo, Amaranthus lividus; set-up: key: 0 = normal development, 5 = all killed (6 ranks vs. untreated); settings: foliar spray, 500 ppm, 3 weeks, glass house 25° C.
Procedure: (§1) The herbicidal effects are evaluated according to the following 6 ranks as compared with non-treated district. (0: normal development, 1: Less damaged, 2: Slightly damaged, 3: Moderately damaged, 4: Severely damaged, 5: All killed). Incidentally, “-” in the column means not investigated.
(§2) Wagner pots, each having an area of 1/5000 are, were packed with volcanic ash soil and then each seed of corn, soybean, cotton, wheat, solgum, sugar beat, Large crabgrass, barnyardgrjass, green foxtail, blackgrass, annual bluegrass, common lambsquarters, livid amaranth, velvetleaf, morning glory, Xanthium pensylvanicum and Cassia obtusifolia was planted, covered with soil and grown in a glass house at an average temperature of 25° C. for about 2 weeks.
(§3) Each wettable powder of the desired compounds (I) shown in Tables 1 to 21, 24, 25, 28 and 29 prepared in accordance with Example 2 was diluted to 500 ppm with water containing a surfactant (0.5%) and then uniformly sprayed on the above respective plants.
(§4) After these plants were controlled in a glass house at an average temperature of 25° C. for 3 weeks, the herbicidal effects thereof were investigated.
(§5) The herbicidal effects were evaluated according to the evaluation method described in the above (1).

green foxtail [2] = test: Soil treatment test for upland field; format: in vivo, Setaria viridis; set-up: key: 0 = normal development, 5 = all killed; settings: 500 g/ha, 3 weeks, glass house 25° C.
Procedure: as §1
(§6) Wagner pots, each having an area of 1/5000 are, were packed with Ube soil (alluvial soil), and then each seed of corn, soybean, cotton, wheat, solgum, sugar beat, Large crabgrass, barnyard grass, green foxtail, blackgrass, annual bluegrass, common lambsquarters, livid amaranth, velvetleaf, morning glory, common Cocklebur (Xanthium strumarium) and sicklepod (Cassia obtusifolia) were planted and covered with soil.
(§7) Each wettable powder of the desired compounds (I) shown in Tables 1 to 21, 24, 25, 28 and 29 prepared in accordance with Example 2 was diluted with water containing a surfactant (0.05%) and uniformly sprayed on the surface of each soil so that an effective concentration of the compound (I) in each herbicide became 500 g/ha.
(§8) These plants were controlled in a glass house at an average temperature of 25° C. for 3 weeks, and then herbicidal effects thereof were investigated.
as §5

wheat [3] = test: Foliar spread test for upland field; format: in vivo; set-up: key: 0 = normal development, 5 = all killed (6 ranks vs. untreated); settings: foliar spray, 500 ppm, 3 weeks, glass house 25° C.
Procedure: as §1, §2, §3, §4, §5

corn [4] = test: Foliar spread test for upland field; format: in vivo; set-up: key: 0 = normal development, 5 = all killed (6 ranks vs. untreated); settings: foliar spray, 500 ppm, 3 weeks, glass house 25° C.
Procedure: as §1, §2, §3, §4, §5

annual bluegrass [5] = test: Soil treatment test for upland field; format: in vivo, Poa annua; set-up: key: 0 = normal development, 5 = all killed; settings: 500 g/ha, 3 weeks, glass house 25° C.
Procedure: as §1, §6, §7, §8, §5

common lambsquarters [6] = test: Soil treatment test for upland field; format: in vivo, Chenopodium album; set-up: key: 0 = normal development, 5 = all killed; settings: 500 g/ha, 3 weeks, glass house 25° C.
Procedure: as §1, §6, §7, §8, §5

livid amaranth [7] = test: Soil treatment test for upland field; format: in vivo, Amaranthus lividus; set-up: key: 0 = normal development, 5 = all killed; settings: 500 g/ha, 3 weeks, glass house 25° C.
Procedure: as §1, §6, §7, §8, §5

green foxtail [8] = test: Foliar spread test for upland field; format: in vivo, Setaria viridis; set-up: key: 0 = normal development, 5 = all killed (6 ranks vs. untreated); settings: foliar spray, 500 ppm, 3 weeks, glass house 25° C.
Procedure: as §1, §2, §3, §4, §5

soybean [9] = test: Soil treatment test for upland field; format: in vivo; set-up: key: 0 = normal development, 5 = all killed; settings: 500 g/ha, 3 weeks, glass house 25° C.
Procedure: as §1, §6, §7, §8, §5

wheat [10] = test: Soil treatment test for upland field; format: in vivo; set-up: key: 0 = normal development, 5 = all killed; settings: 500 g/ha, 3 weeks, glass house 25° C.
Procedure: as §1, §6, §7, §8, §5

corn [11] = test: Soil treatment test for upland field; format: in vivo; set-up: key: 0 = normal development, 5 = all killed; settings: 500 g/ha, 3 weeks, glass house 25° C.
Procedure: as §1, §6, §7, §8, §5

common lambsquarters [12] = test: Foliar spread test for upland field; format: in vivo, Chenopodium album; set-up: key: 0 = normal development, 5 = all killed (6 ranks vs. untreated); settings: foliar spray, 500 ppm, 3 weeks, glass house 25° C.
Procedure: as §1, §2, §3, §4, §5

Large crabgrass [13] = test: Soil treatment test for upland field; format: in vivo, Digitaria adscendens; set-up: key: 0 = normal development, 5 = all killed; settings: 500 g/ha, 3 weeks, glass house 25° C.
Procedure: as §1, §6, §7, §8, §5

cotton = test: Foliar spread test for upland field; format: in vivo; set-up: key: 0 = normal development, 5 = all killed (6 ranks vs. untreated); settings: foliar spray, 500 ppm, 3 weeks, glass house 25° C.
Procedure: as §1, §2, §3, §4, §5

sugar beat [14] = test: Foliar spread test for upland field; format: in vivo; set-up: key: 0 = normal development, 5 = all killed (6 ranks vs. untreated); settings: foliar spray, 500 ppm, 3 weeks, glass house 25° C.
Procedure: as §1, §2, §3, §4, §5

soybean [15] = test: Foliar spread test for upland field; format: in vivo; set-up: key: 0 = normal development, 5 = all killed (6 ranks vs. untreated); settings: foliar spray, 500 ppm, 3 weeks, glass house 25° C.
Procedure: as §1, §2, §3, §4, §5

solgum [16] = test: Foliar spread test for upland field; format: in vivo; set-up: key: 0 = normal development, 5 = all killed (6 ranks vs. untreated); settings: foliar spray, 500 ppm, 3 weeks, glass house 25° C.
Procedure: as §1, §2, §3, §4, §5

velvetleaf [17] = test: Foliar spread test for upland field; format: in vivo, Abutilon theophrasti; set-up: key: 0 = normal development, 5 = all killed (6 ranks vs. untreated); settings: foliar spray, 500 ppm, 3 weeks, glass house 25° C.
Procedure: as §1, §2, §3, §4, §5

morning glory [18] = test: Soil treatment test for upland field; format: in vivo, Ipomoea spps.; set-up: key: 0 = normal development, 5 = all killed; settings: 500 g/ha, 3 weeks, glass house 25° C.
Procedure: as §1, §6, §7, §8, §5

blackgrass [19] = test: Soil treatment test for upland field; format: in vivo, Alopecurus aegualis; set-up: key: 0 = normal development, 5 = all killed; settings: 500 g/ha, 3 weeks, glass house 25° C.
Procedure: as §1, §6, §7, §8, §5

morning glory [20] = test: Foliar spread test for upland field; format: in vivo, Ipomoea spps.; set-up: key: 0 = normal development, 5 = all killed (6 ranks vs. untreated); settings: foliar spray, 500 ppm, 3 weeks, glass house 25° C.
Procedure: as §1, §2, §3, §4, §5

barnyard grass = test: Soil treatment test for upland field; format: in vivo, Eschinochloa crusgalli; set-up: key: 0 = normal development, 5 = all killed; settings: 500 g/ha, 3 weeks, glass house 25° C.
Procedure: as §1, §6, §7, §8, §5

Large crabgrass [21] = test: Foliar spread test for upland field; format: in vivo, Digitaria adscendens; set-up: key: 0 = normal development, 5 = all killed (6 ranks vs. untreated); settings: foliar spray, 500 ppm, 3 weeks, glass house 25° C.
Procedure: as §1, §2, §3, §4, §5

velvetleaf [22] = test: Soil treatment test for upland field; format: in vivo, Abutilon theophrasti; set-up: key: 0 = normal development, 5 = all killed; settings: 500 g/ha, 3 weeks, glass house 25° C.
Procedure: as §1, §6, §7, §8, §5

blackgrass [23] = test: Foliar spread test for upland field; format: in vivo, Alopecurus aegualis; set-up: key: 0 = normal development, 5 = all killed (6 ranks vs. untreated); settings: foliar spray, 500 ppm, 3 weeks, glass house 25° C.
Procedure: as §1, §2, §3, §4, §5

sugar beat [24] = test: Soil treatment test for upland field; format: in vivo; set-up: key: 0 = normal development, 5 = all killed; settings: 500 g/ha, 3 weeks, glass house 25° C.
Procedure: as §1, §6, §7, §8, §5

solgum [25] = test: Soil treatment test for upland field; format: in vivo; set-up: key: 0 = normal development, 5 = all killed; settings: 500 g/ha, 3 weeks, glass house 25° C.
Procedure: as §1, §6, §7, §8, §5

annual bluegrass [26] = test: Foliar spread test for upland field; format: in vivo, Poa annua; set-up: key: 0 = normal development, 5 = all killed (6 ranks vs. untreated); settings: foliar spray, 500 ppm, 3 weeks, glass house 25° C.
Procedure: as §1, §2, §3, §4, §5

barnyardgrjass = test: Foliar spread test for upland field; format: in vivo, Eschinochloa crusgalli; set-up: key: 0 = normal development, 5 = all killed (6 ranks vs. untreated); settings: foliar spray, 500 ppm, 3 weeks, glass house 25° C.
Procedure: as §1, §2, §3, §4, §5

Row | Compound | Effects Livid amaranth (livid amaranth [1]) | Effects Green foxtail (green foxtail [2]) | Effects Wheat (wheat [3]) | Effects Corn (corn [4]) | Effects Annual bluegrass (annual bluegrass [5]) | Effects Common lambsquarters (common lambsquarters [6]) | Effects Livid amaranth (livid amaranth [7]) | Effects Green foxtail (green foxtail [8]) | Effects Wheat (wheat [10]) | Effects Corn (corn [11]) | Effects Common lambsquarters (common lambsquarters [12]) | Effects Large crabgrass (Large crabgrass [13]) | Effects Sotton (cotton) | Effects Sugar beat (sugar beat [14]) | Effects Soybean (soybean [15]) | Effects Solgum (solgum [16]) | Effects Velvetleaf (velvetleaf [17]) | Effects Morning glory (morning glory [18]) | Effects Barnyardgrass (barnyard grass) | Effects Large crabgrass (Large crabgrass [21]) | other results
1 | CCC(Oc1cc(C(F)(F)F)nn1C)c1nc2cc(Cl)ccc2o1 (centres unmarked) [Compound 1-e-2] | 4 | 3 | 1 | 1 | 3 | 2 | 5 | 2 | 0 | 0 | 3 | 3 | – | – | – | – | – | – | – | – | Effects Soybean (soybean [9]): 0
2 | CCCC(Oc1cc(C)nc(SC)n1)c1nc2cc(C#N)c(F)cc2o1 (centres unmarked) [Compound 1-e-65] | – | 4 | – | – | – | 2 | 5 | – | 0 | 0 | – | 4 | – | – | – | – | – | – | – | – | Effects Soybean (soybean [9]): 0
3 | CCCC(=Cc1cccc(C(F)(F)F)c1)c1nc2cc([N+](=O)[O-])ccc2o1 [I-c-74] | 5 | 5 | 2 | 2 | 5 | 5 | 5 | 5 | 1 | 2 | 5 | 5 | 5 | 4 | 5 | 2 | 4 | 5 | 5 | 4 | Effects Blackgrass (blackgrass [19]): 4; Effects Morning glory (morning glory [20]): 5; Effects Velvetleaf (velvetleaf [22]): 5; Effects Blackgrass (blackgrass [23]): 2; Effects Sugar beat (sugar beat [24]): 5; Effects Solgum (solgum [25]): 2; Effects Annual bluegrass (annual bluegrass [26]): 4; Effects Barnyardgrass (barnyardgrjass): 2
4 | CCCC(=Cc1cccc(C(F)(F)F)c1)c1nc2cc(C#N)ccc2o1 [I-c-83] | 5 | 5 | 2 | 3 | 5 | 5 | 5 | 5 | 1 | 2 | 5 | 5 | 5 | 5 | 4 | 3 | 4 | 5 | 4 | 4 | Effects Blackgrass (blackgrass [19]): 5; Effects Morning glory (morning glory [20]): 5; Effects Velvetleaf (velvetleaf [22]): 5; Effects Blackgrass (blackgrass [23]): 4; Effects Sugar beat (sugar beat [24]): 5; Effects Solgum (solgum [25]): 1; Effects Annual bluegrass (annual bluegrass [26]): 4; Effects Barnyardgrass (barnyardgrjass): 2
5 | CCCC(=Cc1cccc(C(F)(F)F)c1)c1nc2cc(F)c(F)cc2o1 [I-c-113] | 5 | 5 | 2 | 2 | 5 | 5 | 5 | 5 | 2 | 2 | 5 | 5 | 5 | 5 | 5 | 3 | 4 | 4 | 5 | 4 | Effects Blackgrass (blackgrass [19]): 5; Effects Morning glory (morning glory [20]): 5; Effects Velvetleaf (velvetleaf [22]): 5; Effects Blackgrass (blackgrass [23]): 4; Effects Sugar beat (sugar beat [24]): 5; Effects Solgum (solgum [25]): 2; Effects Annual bluegrass (annual bluegrass [26]): 4; Effects Barnyardgrass (barnyardgrjass): 3
6 | CC(=Cc1cccc(C(F)(F)F)c1)c1nc2cc(C#N)c(Cl)cc2o1 [I-c-141] | 5 | 5 | 1 | 2 | 5 | 5 | 5 | 5 | 0 | 0 | 5 | 5 | 5 | 5 | 3 | 1 | 4 | 5 | 4 | 3 | Effects Blackgrass (blackgrass [19]): 4; Effects Morning glory (morning glory [20]): 5; Effects Velvetleaf (velvetleaf [22]): 5; Effects Blackgrass (blackgrass [23]): 1; Effects Sugar beat (sugar beat [24]): 5; Effects Solgum (solgum [25]): 0; Effects Annual bluegrass (annual bluegrass [26]): 3; Effects Barnyardgrass (barnyardgrjass): 1
7 | CCC(Oc1cc(C(F)(F)F)on1)c1nc2cc(C#N)c(F)cc2o1 (centres unmarked) [I-e-40, 1-(5-cyano-6-fluorobenzoxazol-2-yl)-1-(5-trifluoromethylisoxazol-3-yloxy)propane] | 5 | 5 | 2 | – | 5 | 5 | 5 | 4 | 0 | 1 | 5 | 5 | – | – | – | – | – | – | 5 | 4 | Effects Soybean (soybean [9]): 2

Source: patent publication US7402548B2, “Benzoxazole compounds, process for producing the same and herbicides” (Kyoyu Agri Co., Ltd., priority 2000, dated 2008)
